In patent publication US6756509B2, “Method for purifying crude 2,6-naphthalenedicarboxylic acid” (Kobe Steel, Ltd., priority 2001, dated 2004):

Columns and labels:
[1] = solubility in alcohol at room temperature
[2] = solubility in water at room temperature; assay type: physicochemical
Method: Preferably, the reduction reaction is performed at a temperature in the range of 280 to 350° C. […] In addition, in order to maintain the liquid phase at a high temperature in the range described above, the pressure must be the saturated vapor pressure or higher (150 to 250 atm). Fortunately, using hydrogen dissolved in water prevents the equipment from deteriorating. Specifically, if hydrogen gas is supplied to a water medium containing 2,6-NDA, the hydrogen gas is used at such a high temperature and high pressure, consequently making the reactor brittle. In order to prevent the embrittlement, pressure-resistant equipment, which is expensive, is required.

| amount that dissolves in ethanol ([1]; ethanol) [mass %] | solubility in alcohols ([1]; any alcohols) | solubility in water [2] | SMILES |
| --- | --- | --- | --- |
| 10 |  |  | O=C(O)c1ccc2ccccc2c1 [2-NA, 2-naphthoic acid] |
|  | hardly dissolves | slightly soluble or insoluble | O=C(O)c1ccc2cc(C(=O)O)ccc2c1 [2,6-NDA, 2,6-naphthalenedicarboxylic acid] |
